This is an account of results in publication PMC5754413, “Mass balance, metabolic disposition, and pharmacokinetics of a single oral dose of regorafenib in healthy human subjects” (Cancer Chemotherapy and Pharmacology, 2017).

Data set [1] can be described thus: Total radioactivity in plasma and whole blood (LSC) after a single oral dose of [14C]regorafenib. The settings on record: for C max of total radioactivity: geometric mean (%CV), N = 4. In kind it is in vivo, human. The protocol: Subjects were screened within the 28 days before scheduled drug administration and entered the clinical unit 1 day before drug administration. After an overnight fasting, subjects received a single oral 120 mg dose of regorafenib, containing approximately 100 μCi (3.7 MBq) [^14C]regorafenib, as a 6 mL solution in an aqueous PEG-based vehicle (Diluent Sol 30 mL oral, Bayer HealthCare AG) followed by 240 mL water. The associated radiation exposure fell within International Commission on Radiological Protection Guidelines for Category IIa studies (0.1–1 mSv).
Blood and plasma: Blood samples (18.7 mL per each time point) were collected into nonbeaded lithium-heparinized tubes immediately pre-dose and at the following post-dose times: 0.5, 1, 1.5, 2, 2.5, 3, 4, 6, 9, 12, 16, 20, 24, 36, 48, 72, 96, 120, 144, 192, 240, and 288 h. For each sample, 1 mL of whole blood was stored at 4 °C for subsequent LSC and the remainder was processed for plasma. Individual 150 μL plasma samples for each time point were treated with formic acid (20 μL) and acetonitrile (450 μL). The samples were homogenized using a MS2 Minishaker® (IKA® Labortechnik, Staufen im Breisgau, Germany). The precipitated proteins were removed by centrifugation (5 min, 13,000 rpm, Biofuge). After concentrating the supernatant to about 80 μL, methanol (15 μL) was added. The individual samples were analyzed by HPLC with off-line radioactivity detection for metabolite profiling.
(§1) Liquid samples: Duplicate aliquots of liquid samples were diluted with 1 mL distilled water, if necessary, and mixed with 10 mL Aquasafe 500 Plus scintillation fluid. Levels of radioactivity were measured by LSC (PerkinElmer 2100) with automatic quench correction by an external standard channel ratio method at 13 °C using Ultima Gold™ as the liquid scintillation cocktail. Lower limits of detection (LLOD) were 30 μg-Eq/L for plasma (sample volume 0.5 mL), 50 μg-Eq/L for whole blood (sample volume 0.3 mL), and 0.016 μg-Eq/g for urine (sample weight 1 g).
Pharmacokinetic outcome measures were generated by non-compartmental analysis of plasma concentration–time data using WinNonlin v4.1 (Pharsight Corporation) in conjunction with Kincalc v2.50 (Bayer AG). […] The metabolite or regorafenib percentages were calculated by AUC(0–144)metabolite or regorafenib divided by AUC(0–144)radioactivity calculated from data obtained by HPLC–LSC analysis. Secondary outcomes were: time to C max (t max); apparent terminal elimination half-life (t ½); apparent volume of distribution during the terminal phase after extravascular administration (Vz/F); and total body clearance of drug calculated after extravascular administration (e.g., apparent oral clearance) (CL/F). AUC was estimated by the sum of partial areas: partial areas were calculated using the linear (if C i ≤ C i+1) or the logarithmic (if C i > C i+1) trapezoidal rules. The quality of the half-life calculation was assessed based on graphs showing the concentration–time profile. […] The extrapolated portion of the AUC from the last measured data point C(t n) to infinity was calculated using the concentration C last,calc, which was calculated from the log-linear regression line used for half-life calculation rather than C(t n). In addition, appropriate pharmacokinetic parameters were derived from the total radioactivity-versus-time data in blood and plasma.

Data set [2] is described as follows: Mass balance: urinary and fecal excretion of radioactivity and metabolite pattern in excreta. In kind it is in vivo, human. The method, then: Urine: Urine samples were collected at 12-h intervals post-dose on Day 1 and then at 24-h intervals until 288 h post-dose. Urine was stored at 4 °C until it was divided into aliquots for LSC and subsequent metabolite profiling (aliquots were stored at − 20 °C).
Feces: Fecal samples were collected and homogenized in water on a daily basis until 12 days post-dose. Duplicate aliquots of the homogenates were taken for combustion with oxygen (in preparation for LSC), and separate aliquots were used for metabolite profiling.
as §1
Fecal samples: Duplicate aliquots of fecal homogenate (about 0.3 g) were weighed into Combustocones® containing Combustopads® for combustion analysis. Samples were combusted using a Packard Tri-Carb 307 Automatic Sample Oxidizer. The resultant ^14CO2 generated was collected by absorption in Carbo-Sorb (8 mL) to which Permafluor E+ (10 mL) was added. Radioactivity was quantified using a liquid scintillation analyzer (PerkinElmer 2100), with automatic quench correction using an external standard method as urine sample analysis. Samples were allowed to stabilize with respect to heat and light, and each sample was analyzed for 5 min. Prior to calculation of individual results, a background count rate was determined and subtracted from each sample’s count rate. LOD was 0.05 μg-Eq/g (sample weight 0.3 g).
Due to the limited amount of radiocarbon associated with many of the samples, analyses were conducted using HPLC with fraction collection followed by off-line LSC. Samples were analyzed on a 150 × 3 mm Prodigy® ODS-3 100A, 3 µm column (Phenomenex, Aschaffenburg, Germany) protected by 8 × 3 mm Nucleosil® 100-3 C18 HD guard columns (Macherey–Nagel, Düren, Germany). Metabolites were separated with a gradient of aqueous potassium dihydrogen phosphate (1 g/L, pH 2.0, mobile phase A) versus acetonitrile (mobile phase B) at a flow rate of 0.5 mL/min (gradient: 0% B at 0 min, linear to 50% B at 10 min, linear to 60% B at 25 min, linear to 80% B at 26 min, plateau at 80% B to 30 min). The radiochemical profile of [^14C]regorafenib-derived radioactivity was determined for all urine samples, plasma extracts, and fecal homogenate extracts. Here, HPLC fractionation into 96-well plates was followed by off-line LSC (Wallac 1450 MicroBeta liquid scintillation analyzer) after adding 150 μL of scintillation cocktail to each well (Ultima-Flo™ AP, PerkinElmer; sampling rate: 10 s/well) using the Wallac 1450 Microbeta™ Plusliquid detector. Reconstructed radiochemical profiles were compiled from the resulting data.

Details of data set [3]: method as in PMID 24896071. The settings on record: co-administration of ketoconazole with a single 160 mg dose of regorafenib; cited from earlier work.
The mark [4] stands for this setting: range between subjects, percent of administered dose.

Take `CNC(=O)c1cc(Oc2ccc(NC(=O)Nc3ccc(Cl)c(C(F)(F)F)c3)c(F)c2)ccn1` [Regorafenib, 4-[4-({[4-chloro-3-(trifluoromethyl)phenyl]carbamoyl}amino)-3-fluorophenoxy]-N-methylpyridine-2-carboxamide]: the “Estimated half-lives of total radioactivity, range between subjects” value in data set [1] (in vivo) was 34 to 42 h. Moreover, the “C max of total radioactivity” value in data set [1] (plasma) was determined as 2.90 mg-Eq/L. Moreover, the “% of AUC(144–inf), extrapolated portion” value in data set [1] (total radioactivity) is reported as “% of AUC(144–inf): total (2.6%), extrapolated portion”. Besides, in data set [1] (whole blood versus plasma radioactivity), the “Binding of regorafenib-derived radioactivity to red blood cells” value is given as “does not bind substantially to red blood cells”. For the same compound, the “C max of total radioactivity” value in data set [1] (whole blood) came out at 1.95 mg-Eq/L. For the same compound, the “Dose renally excreted after 96 h” value in data set [2] (in vivo) is “less than 3%”. Further, the “Cumulative renal excretion by 96 h” value in data set [2] (mean, percent of dose) is 16.6%. Besides, in data set [2] (mean, total radioactivity), the “Excretion in feces within 8 days” value was determined as 67.7% and the “Excretion in feces within the first 4 days” value was 46.3%. In addition, in data set [2] (setting [4]), the “Radioactivity eliminated in feces, range” value is reported as 68.3–76.3% and the “Radioactivity excreted via urine, range” value is reported as 16.2–24.7%. In data set [3], the “Increase in mean AUC” value is reported as 30–40% and the “Increase in mean C max” value was 30–40%.
